Converted amounts (≈) assume the structure as drawn. Counter-ions that a name gives are not always drawn.
Key:
[1] = test system: avian influenza virus H7N7; experiment: microbe, parasite or virus in culture; type: cell-based; conditions: H7N7, MDCK; for OD value (A): MTT; for inhibition at 39.06 µg/mL / inhibition at 78.12 µg/mL / inhibition at 156.25 µg/mL / IC50: unidentified influenza virus; for inhibition at 39.06 µg/mL / inhibition at 78.12 µg/mL / inhibition at 156.25 µg/mL: H7N7; for IC50: H7N7 virus, MDCK cells
[2] = test system: avian influenza virus H9N2; experiment: microbe, parasite or virus in culture; type: cell-based; conditions: H9N2, MDCK; for OD value (A): MTT; for inhibition at 39.06 µg/mL / inhibition at 78.12 µg/mL / inhibition at 156.25 µg/mL / IC50: Influenza A virus; for inhibition at 39.06 µg/mL / inhibition at 78.12 µg/mL / inhibition at 156.25 µg/mL: H9N2; for IC50: H9N2 virus, MDCK cells
MDCK cells = experiment: Toxicity of the tested substance on MDCK cells, MTT method; conditions: OD 570 nm, 3 days
[3] = test system: dry yeast induced fever in rats; experiment: Antipyretic effect, dry yeast induced fever in rats, rectal temperature; type: in vivo, SD rats
[4] = 39.06 μg/ml, first of 2 experiments
[5] = 39.06 μg/ml, second of 2 experiments
[6] = 78.12 μg/ml, first of 2 experiments
[7] = 78.12 μg/ml, second of 2 experiments
[8] = 156.25 μg/ml, first of 2 experiments
[9] = 156.25 μg/ml, second of 2 experiments

NC12CC3CC(CC(C3)C1)C2 [Adamantanamine, amantadine hydrochloride]
OD value (A) [1, 4]: 0.55 ± 0.04 A
OD value (A) [1, 5]: 0.57 ± 0.07 A
OD value (A) [1, 6]: 0.86 ± 0.08 A
OD value (A) [1, 7]: 0.81 ± 0.04 A
OD value (A) [1, 8]: 1.01 ± 0.07 A
OD value (A) [1, 9]: 0.98 ± 0.09 A
inhibition at 39.06 µg/mL [1, 4]: 36%
inhibition at 39.06 µg/mL [1, 5]: 38%
inhibition at 78.12 µg/mL [1, 6]: 60%
inhibition at 78.12 µg/mL [1, 7]: 55%
inhibition at 156.25 µg/mL [1, 8]: 71%
inhibition at 156.25 µg/mL [1, 9]: 68%
IC50 ([1]; first of 2 experiments): 62 µg/mL
IC50 ([1]; second of 2 experiments): 66 µg/mL

NC12CC3CC(CC(C3)C1)C2 [amantadine]
OD value (A) [2, 4]: 0.37 ± 0.02 A
OD value (A) [2, 5]: 0.32 ± 0.03 A
OD value (A) [2, 6]: 0.64 ± 0.05 A
OD value (A) [2, 7]: 0.46 ± 0.03 A
OD value (A) [2, 8]: 0.71 ± 0.07 A
OD value (A) [2, 9]: 0.68 ± 0.15 A
inhibition at 39.06 µg/mL [2, 4]: 34%
inhibition at 39.06 µg/mL [2, 5]: 27%
inhibition at 78.12 µg/mL [2, 6]: 65%
inhibition at 78.12 µg/mL [2, 7]: 42%
inhibition at 156.25 µg/mL [2, 8]: 72%
inhibition at 156.25 µg/mL [2, 9]: 66%
IC50 ([2]; first of 2 experiments): 63 µg/mL (≈ 417 µM)
IC50 ([2]; second of 2 experiments): 66 µg/mL (≈ 436 µM)
OD value (A) (MDCK cells; 39.06 μg/ml): 1.20 ± 0.04 A
OD value (A) (MDCK cells; 78.12 μg/ml): 1.05 ± 0.02 A
OD value (A) (MDCK cells; 156.25 μg/ml): 0.96 ± 0.05 A

CC(=O)Oc1ccccc1C(=O)O [Aspirin]
rectal temperature ([3]; 100 mg/kg by gavage 0.5 h and […] after pyrogen, baseline value, 1 h before the injection of pyrogen, n = 5): 37.8 °C
rectal temperature ([3]; 100 mg/kg by gavage, 1 h after the injection of pyrogen): 38.0 °C
rectal temperature ([3]; 100 mg/kg by gavage, 2 h after the injection of pyrogen): 37.5 °C
rectal temperature ([3]; 100 mg/kg by gavage, 3 h after the injection of pyrogen): 37.7 °C
rectal temperature ([3]; 100 mg/kg by gavage, 4 h after the injection of pyrogen): 37.8 °C
rectal temperature ([3]; 100 mg/kg by gavage, 5 h after the injection of pyrogen): 38.1 °C
rectal temperature ([3]; 100 mg/kg by gavage, 6 h after the injection of pyrogen): 38.1 °C
rectal temperature ([3]; 100 mg/kg by gavage, 7 h after the injection of pyrogen): 38.3 °C
rectal temperature ([3]; 100 mg/kg by gavage, 8 h after the injection of pyrogen): 38.5 °C
rectal temperature ([3]; 100 mg/kg by gavage, 9 h after the injection of pyrogen): 38.8 °C
time for which the effect of reducing the body temperature was maintained ([3]; 100 mg·kg^−1, starting from […] after the injection of the pyrogen): 4 h

Source: US11235015B2, “Antiviral Traditional Chinese Medicine composition and preparation method and use i'hereof” (priority 2017, dated 2022)
